Source: publication PMC6189639 (Biochemistry, 2018)

How the values were obtained:
Experiment in all cases: X-ray crystal structure of complex, […] A
Type in all cases: binding
[1] = target: tmMBP3 (Thermotoga maritima, UniProt G4FGN8); details: co-crystal, 0.4 M sodium thiocyanate; substrate site S1-S2
[2] = target: tmMBP1 (Thermotoga maritima, UniProt Q9X0T1); details: co-crystal, 0.1 M sodium citrate; substrate site S1-S4
[3] = target: tmMBP2 (Thermotoga maritima, UniProt Q9S5Y1); details: co-crystal, bis-tris pH 5.5; substrate site S1-S4

X-ray crystal structure of complex, 2.15 A; SAXS [1] | X-ray crystal structure of complex, 1.50 A; SAXS [2] | X-ray crystal structure of complex, 1.50 A; SAXS [3] | Compound
tmMBP3-maltose complex (6DTQ) | – | – | OC[C@H]1O[C@H](O[C@H]2[C@H](O)[C@@H](O)C(O)O[C@@H]2CO)[C@H](O)[C@@H](O)[C@@H]1O (stereo partly drawn) [maltose]
– | tmMBP1-maltotetraose complex (6DTU) | tmMBP2-maltotetraose complex (6DTS) | OC[C@H]1O[C@H](O[C@H]2[C@H](O)[C@@H](O)[C@@H](O[C@H]3[C@H](O)[C@@H](O)[C@@H](O[C@H]4[C@H](O)[C@@H](O)C(O)O[C@@H]4CO)O[C@@H]3CO)O[C@@H]2CO)[C@H](O)[C@@H](O)[C@@H]1O (stereo partly drawn) [maltotetraose]
